Results published in patent US10815241B2, “Optically active azabicyclo ring derivative” (priority 2018, dated 2020).

Assays:
MOLM-13 cells = assay: Test 2: inhibition of cell proliferation, MOLM-13; assay type: cell-based; conditions: Homo sapiens, 7 days, PrestoBlue cell viability
Description: (§1) RS4; 11 cells were obtained from American Type Culture Collection (ATCC). […] MOLM-13 cells were separately obtained from DSMZ (Deutsche Sammlung von Mikroorganismen und Zellkulturen GmbH).
(§2) The cells were plated to a 96-well plate in 2000 cells/well, each test compound was added thereto to adjust the final concentration of DMSO to 0.1% of DMSO, and the cells were cultured for 7 days. After the cultivation, the cell viability was calculated with PrestoBlue™ Cell Viability Reagent (Invitrogen, A13261).

HOXA9 = assay: Test 3: inhibition of mRNA transcription, HOXA9 in MV4;11 cells; assay type: cell-based; conditions: 20 to 24 hours, relative to GAPDH
From the text: (§3) MV4; 11 cells were obtained from American Type Culture Collection (ATCC). […] The expression level of each obtained gene (MEIS1 and HOXA9) was fitted with the expression level of mRNA of GAPDH.

[1] = target: hERG (human Ether-a-go-go Related Gene) (Homo sapiens (Human), UniProt Q12809); assay: Test 4: hERG inhibition (QPatch HT, CHO cells stably expressing hERG)
Sequence of hERG (human Ether-a-go-go Related Gene) (Q12809 whole entry): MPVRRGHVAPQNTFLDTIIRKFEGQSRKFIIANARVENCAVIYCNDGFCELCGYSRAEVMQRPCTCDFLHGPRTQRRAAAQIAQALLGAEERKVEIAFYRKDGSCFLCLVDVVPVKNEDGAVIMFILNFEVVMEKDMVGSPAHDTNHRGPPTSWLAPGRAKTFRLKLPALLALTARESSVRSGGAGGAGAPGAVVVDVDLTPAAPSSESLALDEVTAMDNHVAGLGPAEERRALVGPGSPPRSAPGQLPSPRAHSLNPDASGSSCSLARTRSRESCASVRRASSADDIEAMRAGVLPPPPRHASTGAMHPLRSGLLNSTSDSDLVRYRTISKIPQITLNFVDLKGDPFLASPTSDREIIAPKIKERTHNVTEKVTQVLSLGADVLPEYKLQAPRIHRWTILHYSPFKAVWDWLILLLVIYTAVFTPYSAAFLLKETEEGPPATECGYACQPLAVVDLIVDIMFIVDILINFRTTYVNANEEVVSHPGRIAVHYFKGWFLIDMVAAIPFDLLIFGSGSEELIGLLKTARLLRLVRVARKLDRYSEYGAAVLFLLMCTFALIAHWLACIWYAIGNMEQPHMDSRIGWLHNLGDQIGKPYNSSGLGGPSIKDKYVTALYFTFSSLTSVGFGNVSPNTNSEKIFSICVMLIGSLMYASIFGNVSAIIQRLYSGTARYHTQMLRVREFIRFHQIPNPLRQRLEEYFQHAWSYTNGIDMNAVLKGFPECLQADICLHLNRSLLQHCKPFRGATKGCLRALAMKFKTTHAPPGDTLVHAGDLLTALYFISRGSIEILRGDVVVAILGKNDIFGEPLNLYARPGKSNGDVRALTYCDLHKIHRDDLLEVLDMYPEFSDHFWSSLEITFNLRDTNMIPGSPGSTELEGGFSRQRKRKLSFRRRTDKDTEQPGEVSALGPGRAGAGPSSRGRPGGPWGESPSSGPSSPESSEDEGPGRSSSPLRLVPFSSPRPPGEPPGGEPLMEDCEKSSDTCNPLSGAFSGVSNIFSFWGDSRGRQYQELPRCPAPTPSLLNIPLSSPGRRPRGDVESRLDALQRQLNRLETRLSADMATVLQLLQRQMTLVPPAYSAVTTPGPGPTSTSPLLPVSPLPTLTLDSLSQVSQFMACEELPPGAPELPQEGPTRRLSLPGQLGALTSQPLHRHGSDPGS

RS4; 11 cells = assay: Test 2: inhibition of cell proliferation, RS4;11; assay type: cell-based
Description: as §1, §2

MEIS1 = assay: Test 3: inhibition of mRNA transcription, MEIS1 in MV4;11 cells; assay type: cell-based
From the text: as §3

[2] = target: Menin-MLL binding (His-Menin1-615 / MLL1-172-FLAG) (Homo sapiens (Human), UniProt O00255); assay: Test 1: inhibition of the Menin-MLL binding (HTRF)
Sequence of Menin-MLL binding (His-Menin1-615 / MLL1-172-FLAG) (O00255 other isoform, or with tags, fused parts or gaps): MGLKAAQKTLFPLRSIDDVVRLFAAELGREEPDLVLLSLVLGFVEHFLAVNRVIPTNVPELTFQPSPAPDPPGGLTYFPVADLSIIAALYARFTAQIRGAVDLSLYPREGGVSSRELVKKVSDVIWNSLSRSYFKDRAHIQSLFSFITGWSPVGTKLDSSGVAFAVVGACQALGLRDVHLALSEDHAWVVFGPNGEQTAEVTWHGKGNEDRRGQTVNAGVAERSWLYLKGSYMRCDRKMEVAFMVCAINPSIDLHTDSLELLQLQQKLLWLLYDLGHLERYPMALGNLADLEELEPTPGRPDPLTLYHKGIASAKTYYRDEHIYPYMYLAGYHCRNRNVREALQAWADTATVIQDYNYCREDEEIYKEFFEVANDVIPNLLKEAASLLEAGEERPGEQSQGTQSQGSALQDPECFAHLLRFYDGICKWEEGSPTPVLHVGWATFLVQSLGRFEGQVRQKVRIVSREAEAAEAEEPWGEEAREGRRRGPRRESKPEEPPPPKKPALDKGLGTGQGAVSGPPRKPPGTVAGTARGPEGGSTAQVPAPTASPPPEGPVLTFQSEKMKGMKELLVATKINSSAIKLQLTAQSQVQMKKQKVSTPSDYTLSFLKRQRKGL
Description: After the incubation, the signal was detected with RUBYstar (BMG LABTECH).

With `CC(C)N(C(=O)c1cc(F)ccc1Oc1cncnc1N1CC2(CN(C(=O)[C@H]3N[C@H]4CC[C@@H]3[C@@H](F)C4)C2)C1)C(C)C` [Example 10, 5-fluoro-2-[(4-{6-[(1S,3S,4S,5S)-5-fluoro-2-azabicyclo[2.2.2]octane-3-carbonyl]-2,6-diazaspiro[3.3]heptan-2-yl}pyrimidin-5-yl)oxy]-N,N-di(propan-2-yl)benzamide] the IC50 (MOLM-13 cells) was 0.03 µM, the “mRNA at 1 μM (% control) HOXA9” value (HOXA9) was 37.4 % control and the IC50 [1] was > 10 µM. For the same molecule, the “gap between RS4; 11 proliferation IC50 and hERG current IC50” value [1] was “more than 100 fold”, the “hERG/RS4; 11” value ([1]; hERG IC50 divided by RS4;11 proliferation IC50) was >500 and the IC50 (RS4; 11 cells; Homo sapiens, RS4;11 cells, 7 days, PrestoBlue cell viability) was 0.02 µM. For the same molecule, the “cell proliferation inhibition activity” value (RS4; 11 cells; statement in words, RS4;11 and MOLM-13 cells) was “potent”, the “mRNA at 1 μM (% control) MEIS1” value (MEIS1; MV4;11 cells, 1 μM, 20 to 24 hours, relative to GAPDH) was 13.3 % control and the “mRNA transcription inhibition activity” value (MEIS1; statement in words, MEIS1 and HOXA9, MV4;11 cells) was “showed the mRNA transcription inhibition activity”. The IC50 ([2]; Menin-MLL binding inhibition) was < 0.003 µM and the “Menin-MLL binding inhibition activity” value ([2]; statement in words on the table of Test 1) was “particularly potent”.
